Test results from patent US9597360B2, “Method of treatment for pulpitis and/or enhancement for dentinogenesis” (National Center for Geriatrics and Gerontology, priority 2008, dated 2017).

How the values were obtained:
[1] = system: Human umbilical vein endothelial cells (HUVECs); assay: Proliferative effect on endothelial cells (Tetra-color one, 450 nm absorbance); format: cell-based; conditions: HUVEC
Experimental: Human umbilical vein endothelial cells (HUVECs) (KURABO Industries, Osaka,) were seeded with 1,000 cells per 96 well. […] Ten μl of Tetra-color one (Seikagaku Kogyo, Co., Tokyo, Japan) was added to the 96 well plate, and cell numbers were measured using spectrophotometer at 450 nm absorbance at 2, 12, 24, 36, 48, 60 hours of culture. Wells without cells were served as negative controls.

[2] = system: HUVEC; assay: Modified Boyden chamber migration assay; format: cell-based, human
Experimental: Modified Boyden chamber assay was performed at 37° C. with a PET membrane (BD Bioscience, Franklin Lakes, N.J.) of 24 well for 24 hours. In the presence of 10 ng/ml of MMP3, 100 ng/ml of MMP3, 100 ng/ml of MMP3 and 0.13 μmol of NNGH, 50 ng/ml of MMP10, 50 ng/ml of MMP10 and 0.13 μmol of NNGH, 0.13 μmol of NNGH only, or 50 ng/ml of VEGF-A, 5×10^4 cells of HUVEC was cultured in the upper part of the chamber. As a control, a 0.02% bovine serum albumin (Sigma) was used. After incubations, HUVEC which migrated to the lower part of the membrane was detached by trypsin treatment and counted. […] The data represented the mean±SD of 4 samples.

[3] = system: HUVEC; assay: Anti-apoptotic effect, staurosporine-induced apoptosis (Annexin V-FITC/Propidium Iodide flow cytometry); format: cell-based, human
Experimental: NNGH was added 30 minutes before adding MMP3. As a control, cells were cultured in EBM-2 without adding any in the presence of staurosporine. Four hours later, HUVEC was detached from the dish and stained with Annexin V-FITC (Roche) and Propidium Iodide (Sigma) in a cell suspension for 15 minutes and measured ratio of necrosis and apoptosis in flow cytometer JSAN (Bay Bioscience, Kobe).

[4] = system: amputated pulp of rat upper incisor; assay: Rat pulp amputated model; format: in vivo
Experimental: After pulpotomy of rat upper incisor, and wash with a saline, 50 ng of MMP3 adsorbed in spongel was applied to the amputated pulp. As a control, 50 ng of MMP3 and 30 nmol NNGH adsorbed in spongel was applied to the amputated pulp. The cavity was temporally sealed with a bonding agent and a photopolymerization type composite resin (Unifil low flow, GC, Tokyo). 24 hours, 72 hours, or 7 days after application, the paraffin sections of the 5 μm thickness were examined morphologically after HE staining or Masson Trichrome staining.
For quantitative analysis of newly formed blood vessels, each 5 frozen sections at 24 hours after treatment both with MMP3 and control PBS from 4 incisors each, total 40 sections were stained with Fluorescein Griffonia (Bandeiraea) Simplicifolia lectin (BS1-lectin) as described above. Three rectangles of a standardized size (0.1 mm^2) were drawn in the upper part of pulp tissue under the amputated site in every five sections from one sample. The lectin-positive area relative to total area (1.5 mm^2) was quantitatively analyzed in a standardized procedure using BZ-II Analyzer (Keyence) software on a Keyence BZ-9000 fluorescence microscope (Keyence, Tokyo, Japan). The data were presented as means±standard deviation at 4 determinations.
To evaluate effect of MMP3 on proliferation, immunohistochemical analysis of Proliferating Cell Nuclear Antigen (PCNA) was performed. Paraffin sections of 24 hours after treatment were deparaffinized and antigen was retrieved by antigen unmasking solution (Vector Laboratories, Burlingame, Calif.) according to the manufacturer's instructions. Endogenous peroxidase activity and nonspecific staining were blocked as described earlier. The sections were incubated with anti-PCNA antibody (Dako) at dilutions of 1:100 in antibody diluent (Dako) overnight at 4° C., and further incubated with a peroxidase-conjugated secondary antibody (ImmPRESS reagent; Vector Laboratories) for 30 min at room temperature. After development by DAB Liquid System (Dako), sections were counterstained with hematoxylin, and photographed on an Olympus Vanox-s microscope (Olympus, Tokyo, Japan). For quantitative analysis of proliferating cells, each 3 paraffin sections at 24 hours after treatment both with MMP3 and control PBS from 4 incisors each were used. Three rectangles of a standardized size (0.1 mm^2) were drawn in the upper part of pulp tissue under the amputated site in every 3 sections. The positive staining cells were counted and quantitatively analyzed. The data were presented as means±standard deviation at 4 determinations.
For quantitative analysis of matrix formation, each 5 paraffin sections at 72 hours after treatment both with MMP3 and control PBS from 4 incisors each, and 5 sections at 7 days after treatment with MMP3, NNGH, and control PBS from 4 incisors each were stained with Masson's trichrome staining. The positive area was quantitatively analyzed in the upper part of pulp tissue under the amputated site, 2 mm in depth from the amputated site, using BZ-II Analyzer software. The data were presented as means±standard deviation at 4 determinations.

[5] = system: pulp cells from rat upper incisor; assay: Induction of odontoblast differentiation using pulp cells (Dspp, enamelysin real-time RT-PCR); format: cell-based; conditions: MMP3 100 ng/ml, 14 days and 21 days
Experimental: Pulp cells were isolated from rat upper incisor by the trypsin and collagenase digestion method and cultured in DMEM (Sigma, St. Louis, Mo., USA) including L-ascorbic acid phosphoric acid magnesium salt (Wako pure medicine) and 10% of […] fetal bovine serum (SAFC Biosciences, Lenexa, Kans., USA) and 100 unit/ml penicillin G, 100 μg/ml streptomycin (Invitrogen, Carlsbad, Calif., USA). MMP3 was added 100 ng/ml of MMP3, or 0.13 μmol of NNGH and 50 ng/ml human recombinant BMP2 to the cells at second passage of culture after confluence. Total RNA was extracted 14 days or 21 days after and analyzed expression of odontoblastic differentiation markers, dentin sialophosphoprotein (Dspp) and enamelysin by Real-time RT-PCR (table 1). […] When MMP3 was added, the differentiation inductive effect into odontoblasts in particular was […] in comparison without adding MMP3 of the control 14 days and 21 days after treatment.

[6] = system: amputated pulp of dog upper premolar teeth; assay: Dog pulpotomy model; format: in vivo; conditions: 100 ng MMP3 in spongel, 14 days
Experimental: After pulpotomy of dog upper premolar teeth, the amputated pulp was washed with 5% sodium hypochlorite solution and 3% hydrogen peroxide and further was washed with a saline, 100 ng of MMP3 absorbed in spongel was applied on the amputated pulp. Furthermore, the cavity was provisionally filled with phosphate cement and sealed with a chemical polymerization composite resin after application of a bonding agent. The tooth was extracted 14 days after treatment and fixed with 4% paraformaldehyde fixation at 4° C. overnight and decalcified at 4° C. in 10% formic acid for one week. Reparative dentin formation was observed after HE staining under light microscopy in the longitudinal paraffin 5 μm-section.

[7] = system: inflamed pulp (pulpitis) of dog upper premolar tooth; assay: Dog pulpitis model; format: in vivo
Experimental: The inflammation of the pulp was produced be open with cotton for 24 hours after pulpotomy in the dog upper premolar tooth. Subsequently 100 ng of MMP3 absorbed in spongel was applied to the amputated pulp after washing with 5% sodium hypochlorite solution and 3% hydrogen peroxide and further with a saline. Furthermore, the cavity was filled with phosphate cement and temporally sealed with a chemical polymerization composite resin after application with a bonding agent. The tooth was extracted 14 days later, immersed at 4° C. overnight and followed by fixation and decalcification at 4° C. in 10% formic acid for one week. The reparative dentin formation was observed by an light microscope after H.E. staining at 5 μm-paraffin sections. FIG. 11A is a figure of micrograph showing healing of pulpitis state 14 days after MMP3 application in the upper premolar tooth of the dog in which pulpitis had been produced. FIG. 11B is a figure of micrograph of the high power to show healing of pulpitis state 14 days after MMP3 application in the upper premolar tooth of the dog in which pulpitis had been produced. FIG. 11C is a figure of micrograph 14 days in case of the PBS control of the upper premolar tooth of the dog in which pulpitis produces had been produced. FIG. 11D is a figure of micrograph of the high power 14 days in case of the PBS control of the upper premolar tooth of the dog n which pulpitis had been produced.

## COc1ccc(S(=O)(=O)N(CC(=O)NO)CC(C)C)cc1 [NNGH, N-Isobutyl-N-(4-methoxyphenylsulfonyl)-glycylhydroxamic acid, reference compound]
[1]; MMP3 50 ng/mL with NNGH 0.13 μM
  proliferative effect of MMP3 when NNGH added at the same time: restrained
[1]; NNGH added
  proliferative effect in comparison with the no addition group of MMP3: almost the same
[2]; HUVEC, 100 ng/ml MMP3 and 0.13 μmol NNGH
  migration effect of MMP3 when NNGH added at the same time: inhibited
[3]; 50 ng/ml MMP3 with 0.13 μmol NNGH, staurosporine 100 nM
  anti-apoptotic effect of MMP3 when NNGH added at the same time: inhibited
[4]; 7 days after pulpotomy, P<0.01
  dentin matrix formation in comparison with PBS control group: Significant decrease

## CN[C@@H]1C[C@H]2O[C@@](C)([C@@H]1OC)n1c3ccccc3c3c4c(c5c6ccccc6n2c5c31)C(=O)NC4 [Staurosporine, reference compound]
[3]; Staurosporine 100 nM alone, four hours
  apoptosis, % of cells: 52%

## MMP3: human MMP3 (Chemicon); protein of the MMP family, referred to as stromelysin 1; active ingredient of the medicament
[1]; MMP3 50 ng/mL
  increase of proliferation, 48-hour application in comparison with 2-hour application: approximately 10 times
[5]
  differentiation inductive effect into odontoblasts (Dspp, enamelysin mRNA) in comparison with control without MMP3: not seen
[2]; 10 ng/ml, 24 hours
  migration promotion effect on HUVEC in comparison with control: significant difference was not detected
[2]; 100 ng/ml, 24 hours, control 0.02% bovine serum albumin
  migration of HUVEC, increase compared with the control: approximately 3.5 times
[3]; MMP3 50 ng/ml added at the same time of Staurosporine 100 nM, four hours
  apoptotic cells: 20%
[6]
  cell proliferation in the vicinity of the amputated surface: a large number
  reparative dentin formation in the upper part of the amputated pulp: a large quantity
[7]; 100 ng MMP3, 14 days
  proliferation under the amputated pulp: seen
  reparative dentin formation: sometimes observed
  vascularization: enhanced
[7]; 100 ng MMP3 in spongel, 14 days
  inflammation state of the pulp: very slight
[4]; 50 ng MMP3, 24 hours after pulpotomy, pulp under the amputated site
  PCNA positively staining cells: 98.5 cells/mm^2
[4]; 50 ng MMP3, 24 hours, BS1-lectin positive area
  increase of the vascularization density versus PBS group: double
[4]; 50 ng MMP3 in spongel, 24 hours after pulpotomy
  newly formed blood vessels stained with BS1-lectin under the amputated surface, in comparison with MMP3 free group: more detected
[4]; 24 hours after pulpotomy
  PCNA positively staining cells, increase versus non applied group: 2.7 times
[4]; 72 hours after application
  osteodentin formation around newly differentiated odontoblasts/osteodentinoblasts (Masson's Trichrome staining): observed
[4]; 72 hours after pulpotomy
  DSPP mRNA expression in newly differentiated odontoblasts/osteodentinoblasts (in situ hybridization): seen
  amount of osteodentin in comparison with non applied MMP3 (HE staining): larger amount
  inflammatory cell infiltration (HE staining): not observed
[4]; 72 hours after pulpotomy, P<0.01
  dentin matrix formation under the amputated site, increase in comparison with PBS control group: 3.8 times

## MMP10/Stromelysin-2: MMP-10 (R&D Systems); an isomer of MMP3
[1]; MMP-10 50 ng/mL
  proliferative effect: did not have
[2]; HUVEC, 50 ng/ml of MMP10
  migration effect: did not have
[3]; 50 ng/ml of MMP10, staurosporine 100 nM
  anti-apoptotic effect: did not have
